Assays:
Assay type in all cases: biochemical
Thermosequenase = test: Thermostable DNA polymerase primer extension, TS; parameters: key to result of incorporation (termination / further chain extension): T: Incorporation results in termination; E: Incorporation permits further chain extension; T/E: Predominant product is primer extended by one base, but evidence of some further extension also observed; details: DNA template, 45° C. for 20–40 minutes; for primer extended by at least one base within assay time (grade): TTP replaced entirely by test compound
Experimental: (§1) DNA polymerase assays were performed using Sequence 1 as primer and Sequence 2 as template. • Sequence 1 5′[Cy3]TAACTCATTAACAGGATC 3′ • Sequence 2 5′AT TCGCGGTATTCTGGTATGAAGCTTTTAGATCCTGTTAATGAGTTA GTA3′
(§2) The template (Sequence 2) was designed such that the base (underlined) immediately adjacent to the 3′ end of the hybridised primer is complementary to the nucleotide test compound. Nucleotide test compounds were compounds (6) (4′-C-(glycylaminomethyl)thymidine triphosphate), (8) (4′-C-(N-trifluoroacetyaminomethyl)thymidine triphosphate) and (9) (4′-C-(aminomethyl)thymidine triphosphate) as described above.
(§3) Primer extension reactions were performed using the above primers in the presence of 40 to 80 μM of nucleotide triphosphates. Positive control reactions contained all four native nucleotide triphosphates. For the other reactions the TTP was replaced with either a 2:1 ratio of […] for the terminator control, or entirely by the test compound The enzymes were used at a final concentration of 0.175 units/μl and a magnesium ion concentration of 2.5 mM in buffers supplied by the manufacturer. The primer and template concentrations were 0.5 pmol/μl and 2 pmol/μl respectively.
(§4) Extension reactions with thermophilic enzymes were performed by initially denaturing the fully assembled reactions at 70° C. for 5 min. followed by 45° C. for 20–40 minutes. The following enzymes were used: Taq DNA polymerase (Taq); Thermosequenase (TS); Thermosequenase II (TSII); Thermosequenase E (TSE), Tfl DNA polymerase (Tfl); Tth DNA polymerase (Tth), deltaTts DNA polymerase (deltaTts), deltaTts D DNA polymerase (dettaTTSD) (all from APBiotech); Pfu DNA polymerase (Pfu) (Stratagene Ltd); Vent™ DNA polymerase (Vent) (New England Biolabs).
(§5) The reactions were stopped by adding a 0.5 volume aliquot of 80% formamide containing 0.1% (w/v) bromophenol blue and 0.1% (w/v) cresol blue. The reaction products were separated by denaturing gel electrophoresis at a constant power of 45 W on 16% polyacrylamide gels containing 50% urea.
(§6) Gels were scanned for Cy3 fluorescence on a Molecular Dynamics Fluorimager and the data analysed using Molecular Dynamics ImageQuant 5 software.
(§7) The incorporation of a test nucleotide triphosphate results in the appearance on a polyacrylamide gel of a single band corresponding to a single base extension product. If, however, the enzyme adds additional bases then further bands would be observed that corresponded to either the full-length product or positions of other complementary bases in the template.

Bst DNA polymerase = biological target: T1, Bst DNA polymerase (Geobacillus stearothermophilus, UniProt P52026); test: Mesophilic DNA polymerase primer extension, Bst; parameters: key to result of incorporation (termination / further chain extension): T: Incorporation results in termination; E: Incorporation permits further chain extension; T/E: Predominant product is primer extended by one base, but evidence of some further extension also observed; details: DNA template, 37° C. for 20–40 minutes; for primer extended by at least one base within assay time (grade): TTP replaced entirely by test compound
T1 construct: purchased Cambio Ltd
T1 sequence (P52026 1-876): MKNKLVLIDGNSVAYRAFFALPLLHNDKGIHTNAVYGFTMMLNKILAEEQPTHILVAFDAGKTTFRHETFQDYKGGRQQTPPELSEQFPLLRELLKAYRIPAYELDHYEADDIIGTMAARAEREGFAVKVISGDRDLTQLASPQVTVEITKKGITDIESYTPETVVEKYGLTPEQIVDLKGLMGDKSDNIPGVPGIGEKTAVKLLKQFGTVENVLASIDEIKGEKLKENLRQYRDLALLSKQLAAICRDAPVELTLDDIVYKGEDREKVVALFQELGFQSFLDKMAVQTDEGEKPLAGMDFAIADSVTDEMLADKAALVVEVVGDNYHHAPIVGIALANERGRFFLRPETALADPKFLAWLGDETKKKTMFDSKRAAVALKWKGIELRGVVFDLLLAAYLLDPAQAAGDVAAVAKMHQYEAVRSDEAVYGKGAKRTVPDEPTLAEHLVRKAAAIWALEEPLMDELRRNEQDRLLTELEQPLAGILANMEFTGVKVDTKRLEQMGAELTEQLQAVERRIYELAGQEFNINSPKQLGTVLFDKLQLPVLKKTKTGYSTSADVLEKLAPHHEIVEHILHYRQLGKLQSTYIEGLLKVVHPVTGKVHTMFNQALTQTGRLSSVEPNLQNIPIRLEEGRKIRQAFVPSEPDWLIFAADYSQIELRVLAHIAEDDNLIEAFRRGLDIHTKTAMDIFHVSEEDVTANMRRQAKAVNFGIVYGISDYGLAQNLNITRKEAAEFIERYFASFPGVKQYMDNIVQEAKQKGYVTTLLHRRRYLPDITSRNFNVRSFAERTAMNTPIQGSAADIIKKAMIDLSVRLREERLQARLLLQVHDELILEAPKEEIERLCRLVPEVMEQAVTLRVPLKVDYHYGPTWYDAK
Experimental: as §1, §2, §3
Extension reactions preformed with mesophilic polymerases were carried out by mixing all the components of the reaction except the enzyme and heating to 70° C. for 5 min. After the reactions had cooled to room temperature 0.175 units of the enzyme were added and the reactions heated to 37° C. for 20–40 minutes. The following enzymes were used: T7 DNA polymerase (T7); Sequenase 2™ (Seq); Klenow fragment of DNA polymerase 1 (Klen); phi-29 DNA polymerase (Phi-29); T4 DNA polymerase (T4) (all from AP Biotech) and Bst DNA polymerase (Bst) (Cambio Ltd).
as §5, §6, §7

[1] = system: delta Tts D DNA polymerase; test: Thermostable polymerase under reverse transcription conditions, delta TtsD; parameters: key to result of incorporation (termination / further chain extension): T: Incorporation results in termination; E: Incorporation permits further chain extension; T/E: Predominant product is primer extended by one base, but evidence of some further extension also observed; key to primer extended by at least one base within assay time (grade): −: No extension within assay time; +/−: up to 25% of primer extended by at least one base within assay time; +: up to 50% of primer extended by at least one base within assay time; ++: up to 75% of primer extended by at least one base within assay time; +++: essentially all primer extended by at least one base within assay time; details: RNA template, 2.5 mM Manganese ions; for primer extended by at least one base within assay time (grade): Tth reaction buffer
Experimental: as §1, §2, §3, §4
Reverse transcriptase reactions were performed essentially as described above for thermophilic and mesophilic enzymes. The template for these reactions was the RNA equivalent of sequence 2. All the thermophilic enzymes were assayed in Tth reaction buffer (Cambio Ltd, Cambridge UK) containing 2.5 mM Manganese ions. The following enzymes were used: Thermosequenase (TS1); Thermosequenase II (TSII); delta Tts DNA polymerase (deltaTts); delta Tts D DNA polymerase (deltaTtsD) (all from APBiotech); Retrotherm reverse transcriptase (Retroth) (Cambio Ltd); Tth DNA polymerase (Tth) (Cambio Ltd.).
as §5, §6, §7

In the case of “4′-C-(Aminomethyl)thymidine triphosphate [compound (9)]”, the “result of incorporation (termination / further chain extension)” value (Thermosequenase) is reported as “T”, the “primer extended by at least one base within assay time (grade)” value (shortened to “primer extended”) (Thermosequenase) is reported as “+ (up to 50% of primer extended by at least one base within assay time)” and the “result of incorporation (termination / further chain extension)” value (Bst DNA polymerase) is reported as “T”. For the same molecule, the “primer extended” value (Bst DNA polymerase) was “+ (up to 50% of primer extended by at least one base within assay time)”, the “result of incorporation (termination / further chain extension)” value [1] was “E” and the “primer extended” value [1] was “+++”.

With `Cc1cn([C@H]2C[C@H](O)[C@@](CNC(=O)C(F)(F)F)(COP(=O)(O)OP(=O)(O)OP(=O)(O)O)O2)c(=O)[nH]c1=O` [compound (8), 4′-C-(N-trifluoroacetylaminomethyl)thymidine triphosphate] the “result of incorporation (termination / further chain extension)” value (Thermosequenase) was “T”, the “primer extended” value (Thermosequenase) was “+ (up to 50% of primer extended by at least one base within assay time)” and the “result of incorporation (termination / further chain extension)” value (Bst DNA polymerase) was “T”. The “primer extended” value (Bst DNA polymerase) was “+ (up to 50% of primer extended by at least one base within assay time)”, the “result of incorporation (termination / further chain extension)” value [1] was “E” and the “primer extended” value [1] was “+++”.

In the case of “4′-C-(Glycylaminomethyl)thymidine triphosphate [compound (6)]”, the “result of incorporation (termination / further chain extension)” value (Thermosequenase) is reported as “T”, the “primer extended” value (Thermosequenase) is reported as “+ (up to 50% of primer extended by at least one base within assay time)” and the “result of incorporation (termination / further chain extension)” value (Bst DNA polymerase) is reported as “T”. The “primer extended” value (Bst DNA polymerase) was “+ (up to 50% of primer extended by at least one base within assay time)”, the “result of incorporation (termination / further chain extension)” value [1] was “E” and the “primer extended” value [1] was “+++”.

From patent publication US7078499B2, “Nucleotide analogues comprising a reporter moiety and a polymerase enzyme blocking moiety” (GE Healthcare UK Limited, priority 2000, dated 2006)
